The values below come from patent US10206937B2, “Boronic acid derivatives and therapeutic uses thereof” (Qpex Biopharma, Inc., priority 2014, dated 2019).

Assay [1] has as its target T1, NDM-1 (Klebsiella pneumoniae, UniProt C7C422). As to the kind of experiment: biochemical. The conditions noted are these: cleavage of imipenem (100 uM) by NDM-1; read-out: Ki, Imipenem.
Another assay deals with T2, VIM-1 (Pseudomonas aeruginosa, UniProt A0A0F7KYQ8).
T2 construct: made in house; host or cells: ECM6711 strain carrying pUCP24-VIM-1 plasmid; culture supernatant used unpurified
Description: biochemical. Particulars: cleavage of nitrocefin (200 uM) by VIM-1 supernatant.

The target in assay [2] is T1, NDM-1. As to the kind of experiment: Inhibition of purified class B carbapenemase NDM-1 (Ki, imipenem substrate). The class given is biochemical. The conditions noted are these: NDM-1, substrate imipenem; read-out: Ki NDM-1, Imipenem.
Assay [3] deals with purified class A, C and D enzymes (Enterobacter cloacae, UniProt P05364). The class given is biochemical. The conditions noted are these: purified P99/AmpC of ECL; nitrocefin reporter substrate.
Assay [4] deals with purified class A, C and D enzymes (Escherichia coli, UniProt Q9L5C7). Format: biochemical. Particulars: purified CTX-M-14; nitrocefin reporter substrate.
Assay [5] addresses T3, purified class A, C and D enzymes (UniProt P0AD64, L31Q/G234S/E235K, species not given).
T3 construct: Ki (SHV-12, NCF); other: purified SHV-12; nitrocefin reporter substrate
T3 sequence (P0AD64 1-286 L31Q/G234S/E235K): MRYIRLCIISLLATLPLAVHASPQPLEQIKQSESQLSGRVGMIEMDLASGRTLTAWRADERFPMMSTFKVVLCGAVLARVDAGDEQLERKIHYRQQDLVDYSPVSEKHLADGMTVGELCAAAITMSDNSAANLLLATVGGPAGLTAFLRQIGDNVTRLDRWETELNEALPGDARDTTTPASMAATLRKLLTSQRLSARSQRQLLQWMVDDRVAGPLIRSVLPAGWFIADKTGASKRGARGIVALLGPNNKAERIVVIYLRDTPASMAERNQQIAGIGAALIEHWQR
Format: biochemical. Particulars: read-out: Ki (SHV-12, NCF); purified SHV-12; nitrocefin reporter substrate.

For assay [6], the target named is T4, purified class A, C and D enzymes (UniProt Q6XEC0).
T4 construct: rows headed: Ki (OXA-48, NCF); other: purified OXA-48; nitrocefin reporter substrate
Format: biochemical. Particulars: read-out: Ki (OXA-48, NCF); purified OXA-48; nitrocefin reporter substrate.

For assay [7], the target named is T5, purified class A, C and D enzymes (UniProt Q9F663).
T5 construct: rows headed: Ki (KPC-2, NCF); other: purified KPC-2; nitrocefin reporter substrate
The class given is biochemical. The conditions noted are these: read-out: Ki (KPC-2, NCF); purified KPC-2; nitrocefin reporter substrate.

pIC50, pKi: −log10 of the molar value.

T1 sequence (C7C422 29-270, looked up, species assumed): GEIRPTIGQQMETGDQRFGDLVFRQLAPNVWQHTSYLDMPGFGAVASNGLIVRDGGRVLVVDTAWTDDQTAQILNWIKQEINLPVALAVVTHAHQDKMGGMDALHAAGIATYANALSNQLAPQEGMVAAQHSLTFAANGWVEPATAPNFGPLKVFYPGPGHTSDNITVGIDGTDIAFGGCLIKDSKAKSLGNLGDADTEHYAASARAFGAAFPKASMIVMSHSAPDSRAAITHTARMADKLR
Sequence of purified class A, C and D enzymes (Enterobacter cloacae, UniProt P05364) (P05364 21-381): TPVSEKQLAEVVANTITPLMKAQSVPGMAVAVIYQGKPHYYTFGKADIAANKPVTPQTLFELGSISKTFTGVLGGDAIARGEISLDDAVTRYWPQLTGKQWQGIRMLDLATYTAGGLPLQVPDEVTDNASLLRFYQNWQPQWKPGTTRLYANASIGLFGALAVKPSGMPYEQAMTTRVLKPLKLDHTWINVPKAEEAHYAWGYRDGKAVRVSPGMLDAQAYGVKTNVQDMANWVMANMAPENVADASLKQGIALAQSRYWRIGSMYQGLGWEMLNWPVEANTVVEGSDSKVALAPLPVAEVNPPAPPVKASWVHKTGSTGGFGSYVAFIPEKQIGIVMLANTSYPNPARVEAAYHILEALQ
Sequence of purified class A, C and D enzymes (Escherichia coli, UniProt Q9L5C7) (Q9L5C7 entry or part of it): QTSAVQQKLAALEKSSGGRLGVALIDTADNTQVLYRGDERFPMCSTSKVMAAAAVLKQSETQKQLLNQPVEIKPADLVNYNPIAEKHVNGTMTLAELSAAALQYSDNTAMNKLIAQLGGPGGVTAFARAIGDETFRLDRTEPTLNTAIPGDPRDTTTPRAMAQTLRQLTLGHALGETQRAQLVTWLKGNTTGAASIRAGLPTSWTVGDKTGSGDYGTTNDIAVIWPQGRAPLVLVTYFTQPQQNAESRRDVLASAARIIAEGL

Take `COc1ccc2c(c1C(=O)O)OB(O)[C@@H](Sc1nnc(SCC(=N)N)s1)C2` [Compound 67, (3R)-3-[[5-(2-amino-2-imino-ethyl)sulfanyl-1,3,4-thiadiazol-2-yl]sulfanyl]-2-hydroxy-7-methoxy-3,4-dihydro-1,2-benzoxaborinine-8-carboxylic acid]: the pKi was over 8.00 on NDM-1 [1]; over 8.00 on NDM-1 [2]; over 7.00 in assay [5]; over 7.00 in assay [6]; 6.00 to 7.00 in assay [7]. On VIM-1, this compound gave a pIC50 of over 6.00. Moreover, the “Ki (P99/AmpC of ECL, NCF)” value in assay [3] is on record as “Y (0.1 μM to 1 μM)”. The “Ki (CTX-M-14, NCF)” value in assay [4] was “X (Less than 0.1 μM)”.
With `COc1ccc2c(c1C(=O)O)OB(O)[C@@H](Sc1nnc(SCCN3CCNCC3)s1)C2` [Compound 68, (3R)-2-hydroxy-7-methoxy-3-[[5-(2-piperazin-1-ylethylsulfanyl)-1,3,4-thiadiazol-2-yl]sulfanyl]-3,4-dihydro-1,2-benzoxaborinine-8-carboxylic acid], the pKi on NDM-1 [1] is under 7.00; on NDM-1 [2], under 7.00; in assay [5], over 7.00; in assay [6], over 7.00; in assay [7], 6.00 to 7.00. In addition, on VIM-1, the pIC50 is over 6.00. In addition, in assay [3], the “Ki (P99/AmpC of ECL, NCF)” value was “Y (0.1 μM to 1 μM)”. In addition, the “Ki (CTX-M-14, NCF)” value in assay [4] is listed as “X (Less than 0.1 μM)”.
Turning to `COc1ccc2c(c1C(=O)O)OB(O)[C@@H](Sc1cncs1)C2` [Compound 69, (3R)-2-hydroxy-7-methoxy-3-thiazol-5-ylsulfanyl-3,4-dihydro-1,2-benzoxaborinine-8-carboxylic acid], the pKi on NDM-1 [1] is under 7.00; at NDM-1 [2], under 7.00; in assay [5], over 7.00; in assay [6] it was over 7.00; in assay [7], over 7.00. Also, the pIC50 against VIM-1 is over 6.00. Besides, the “Ki (P99/AmpC of ECL, NCF)” value in assay [3] was “Y (0.1 μM to 1 μM)”. For the same compound, the “Ki (CTX-M-14, NCF)” value in assay [4] is given as “X (Less than 0.1 μM)”.
`COc1ccc2c(c1C(=O)O)OB(O)[C@@H](Sc1nnc[nH]1)C2` [Compound 70, (3R)-2-hydroxy-7-methoxy-3-(4H-1,2,4-triazol-3-ylsulfanyl)-3,4-dihydro-1,2-benzoxaborinine-8-carboxylic acid]: the pKi was 7.00 to 8.00 on NDM-1 [1]; 7.00 to 8.00 at NDM-1 [2]; over 7.00 in assay [5]; over 7.00 in assay [6]; 6.00 to 7.00 in assay [7]. For the same compound, the pIC50 against VIM-1 was over 6.00. The “Ki (P99/AmpC of ECL, NCF)” value in assay [3] is “Y (0.1 μM to 1 μM)”. In addition, in assay [4], the “Ki (CTX-M-14, NCF)” value is given as “X (Less than 0.1 μM)”.
`COc1ccc2c(c1C(=O)O)OB(O)[C@@H](Sc1nnc(CN3CCNCC3)n1N)C2` [Compound 71, (3R)-3-[[4-amino-5-(piperazin-1-ylmethyl)-1,2,4-triazol-3-yl]sulfanyl]-2-hydroxy-7-methoxy-3,4-dihydro-1,2-benzoxaborinine-8-carboxylic acid]: the pKi is 7.00 to 8.00 on NDM-1 [1]; 7.00 to 8.00 at NDM-1 [2]; over 7.00 in assay [5]; 6.00 to 7.00 in assay [6]; 6.00 to 7.00 in assay [7]. The same compound showed a pIC50 against VIM-1 of over 6.00. In assay [3], the “Ki (P99/AmpC of ECL, NCF)” value is reported as “Z (Greater than 1 μM)”. In assay [4], the “Ki (CTX-M-14, NCF)” value is given as “X (Less than 0.1 μM)”.
On to `COc1ccc2c(c1C(=O)O)OB(O)[C@@H](SCCN1CCNCC1)C2` [Compound 72, (3R)-2-hydroxy-7-methoxy-3-(2-piperazin-1-ylethylsulfanyl)-3,4-dihydro-1,2-benzoxaborinine-8-carboxylic acid], for which the pKi on NDM-1 [1] was under 7.00; at NDM-1 [2], under 7.00; in assay [5] it was over 7.00; in assay [6], over 7.00; in assay [7], over 7.00. For the same compound, at VIM-1, the pIC50 was over 6.00. In addition, the “Ki (P99/AmpC of ECL, NCF)” value in assay [3] is given as “Y (0.1 μM to 1 μM)”. In addition, the “Ki (CTX-M-14, NCF)” value in assay [4] is reported as “X (Less than 0.1 μM)”.
As for `COc1ccc2c(c1C(=O)O)OB(O)[C@@H](Sc1nncn1CCCCN)C2` [Compound 73, (3R)-3-[[4-(4-aminobutyl)-1,2,4-triazol-3-yl]sulfanyl]-2-hydroxy-7-methoxy-3,4-dihydro-1,2-benzoxaborinine-8-carboxylic acid], the pKi was 7.00 to 8.00 at NDM-1 [1]; 7.00 to 8.00 on NDM-1 [2]; over 7.00 in assay [5]; over 7.00 in assay [6]; 6.00 to 7.00 in assay [7]. Moreover, the pIC50 against VIM-1 is over 6.00. Further, the “Ki (P99/AmpC of ECL, NCF)” value in assay [3] is given as “Z (Greater than 1 μM)”. The “Ki (CTX-M-14, NCF)” value in assay [4] is given as “X (Less than 0.1 μM)”.
On to `COc1ccc2c(c1C(=O)O)OB(O)[C@@H](Sc1nc(N)ns1)C2` [Compound 74, (3R)-3-[(3-amino-1,2,4-thiadiazol-5-yl)sulfanyl]-2-hydroxy-7-methoxy-3,4-dihydro-1,2-benzoxaborinine-8-carboxylic acid], for which the pKi on NDM-1 [1] is under 7.00; on NDM-1 [2], under 7.00; in assay [5] it was over 7.00; in assay [6] it was over 7.00; in assay [7] it was over 7.00. For the same compound, on VIM-1, the pIC50 is over 6.00. For the same compound, the “Ki (P99/AmpC of ECL, NCF)” value in assay [3] was “Y (0.1 μM to 1 μM)”. For the same compound, the “Ki (CTX-M-14, NCF)” value in assay [4] was “X (Less than 0.1 μM)”.
As to `COc1ccc2c(c1C(=O)O)OB(O)[C@@H](Sc1ncns1)C2` [Compound 75, (3R)-2-hydroxy-7-methoxy-3-(1,2,4-thiadiazol-5-ylsulfanyl)-3,4-dihydro-1,2-benzoxaborinine-8-carboxylic acid], the pKi at NDM-1 [1] is under 7.00; on NDM-1 [2], under 7.00; in assay [5] it was over 7.00; in assay [6], over 7.00; in assay [7], over 7.00. The compound further gave a pIC50 against VIM-1 of over 6.00. Also, the “Ki (P99/AmpC of ECL, NCF)” value in assay [3] is given as “Y (0.1 μM to 1 μM)”. Moreover, the “Ki (CTX-M-14, NCF)” value in assay [4] is listed as “X (Less than 0.1 μM)”.
As for `NCCOc1ccc2c(c1C(=O)O)OB(O)[C@@H](Sc1nnc(N)s1)C2` [Compound 79, (3R)-7-(2-aminoethoxy)-3-[(5-amino-1,3,4-thiadiazol-2-yl)sulfanyl]-2-hydroxy-3,4-dihydro-1,2-benzoxaborinine-8-carboxylic acid], the pKi at NDM-1 [1] was under 7.00; on NDM-1 [2], under 7.00; in assay [5], over 7.00; in assay [6], over 7.00; in assay [7] it was under 6.00. At VIM-1, this compound gave a pIC50 of at most 6.00. Moreover, the “Ki (P99/AmpC of ECL, NCF)” value in assay [3] is given as “Y (0.1 μM to 1 μM)”. In assay [4], the “Ki (CTX-M-14, NCF)” value is listed as “X (Less than 0.1 μM)”.
Turning to `NC(=O)COc1ccc2c(c1C(=O)O)OB(O)[C@@H](Sc1nnc(N)s1)C2` [Compound 80, (3R)-7-(2-amino-2-oxo-ethoxy)-3-[(5-amino-1,3,4-thiadiazol-2-yl)sulfanyl]-2-hydroxy-3,4-dihydro-1,2-benzoxaborinine-8-carboxylic acid], the pKi at NDM-1 [1] is under 7.00; at NDM-1 [2], under 7.00; in assay [5], over 7.00; in assay [6], over 7.00; in assay [7] it was 6.00 to 7.00. On VIM-1, this compound showed a pIC50 of over 6.00. In assay [3], the “Ki (P99/AmpC of ECL, NCF)” value is “Y (0.1 μM to 1 μM)”. Besides, in assay [4], the “Ki (CTX-M-14, NCF)” value is given as “X (Less than 0.1 μM)”.
With `Nc1nnc(S[C@H]2Cc3ccc(OCC(=O)NC4CNC4)c(C(=O)O)c3OB2O)s1` [Compound 81, (3R)-3-[(5-amino-1,3,4-thiadiazol-2-yl)sulfanyl]-7-[2-(azetidin-3-ylamino)-2-oxo-ethoxy]-2-hydroxy-3,4-dihydro-1,2-benzoxaborinine-8-carboxylic acid], the pKi at NDM-1 [1] was under 7.00; on NDM-1 [2] it was under 7.00; in assay [5] it was over 7.00; in assay [6] it was over 7.00; in assay [7], under 6.00. On VIM-1, this compound showed a pIC50 of at most 6.00. Further, the “Ki (P99/AmpC of ECL, NCF)” value in assay [3] was “Y (0.1 μM to 1 μM)”. Further, the “Ki (CTX-M-14, NCF)” value in assay [4] is recorded as “X (Less than 0.1 μM)”.
Regarding `COc1ccc2c(c1C(=O)O)OB(O)[C@@H](Sc1nc(N)n[nH]1)C2` [Compound 82, (3R)-3-[(3-amino-1H-1,2,4-triazol-5-yl)sulfanyl]-2-hydroxy-7-methoxy-3,4-dihydro-1,2-benzoxaborinine-8-carboxylic acid], the pKi is over 8.00 at NDM-1 [1]; over 8.00 at NDM-1 [2]; over 7.00 in assay [5]; over 7.00 in assay [6]; 6.00 to 7.00 in assay [7]. Further, at VIM-1, the pIC50 was over 6.00. The “Ki (P99/AmpC of ECL, NCF)” value in assay [3] is “Y (0.1 μM to 1 μM)”. Also, the “Ki (CTX-M-14, NCF)” value in assay [4] is “X (Less than 0.1 μM)”.

The pKi is the negative decadic logarithm of the Ki, by convention in mol/L. As a reminder, the pIC50 is the negative decadic logarithm of the IC50, by convention in mol/L. Lower therefore signals a high IC50.
